Consider five molecules from patent US6207404A, “Coumarin-based CYP3A fluorescent assay reagents” (Gentest Corporation, priority 1999, dated 2001).

Broadly, the IC50 is the concentration that gives 50% inhibition. A low value points to higher potency. A word on the Km: it is the substrate concentration at which the rate is half of its maximum.

Data set [1] concerns the target T1, human CYP3A4 (Homo sapiens, UniProt P08684). Nature of the data set: biochemical. Conditions: 37° C., 20 minutes.
Data set [2] in a line: Quantum yield of the fluorescent product. The format is physicochemical. Conditions: relative to the product of BzRes.
The next data set deals with human CYP2B6. Conditions: Code et al. 1997; Morse and Lu 1998; cited from earlier work.
A further data set deals with other human P450s. The note with it: Code et al. 1997; Morse and Lu 1998; cited from earlier work.
The subject of data set [3] is panel of cDNA-expressed human P450 enzymes. Conditions: Ono et al. (1996); cited from earlier work.
The next data set concerns CYP3A4. Conditions: in words; Crespi et al. 1997; cited from earlier work.
The target of data set [4] is T1, human CYP3A4. Kind of data set: Enzyme kinetics of substrate turnover with cDNA-expressed CYP3A4 (fluorometric). The format is biochemical. How it is done: The evaluation of compounds of Formula I were initially performed by measuring the kinetics of turnover using cDNA-expressed CYP3A4. In most instances, Vmax and Km values are important for the optimization of the assay conditions and for setting the parameters for inhibition experiments. Fluorometric assays for the turnover of compounds of Formula I by CYP3A4 were performed based on a modification of the method by Crespi et al. Anal Biochem. 248, 188-190, (1997), (described below).
Example Compound I. Assays were conducted in 96 well microtiter plates (Corning COSTAR, cat. no. 3915). The substrate, compound I, was prepared in acetonitrile. After cofactors addition, the plates were prewarmed to 37° C. Incubations were initiated by the addition of prewarmed buffer and enzyme. The enzymes were commercially available, baculovirus/insect cell expressed human CYP3A4 (SUPERSOMES®, GENTEST Corporation). The amount of enzyme added per well was 1 pmole. […] Fluorescence per well was measured using a BMG FLUOstar Model 403 plate scanner controlled with an IBM-compatible computer. The metabolite was measured using an excitation wavelength of 410 nm and emission wavelength of 538 nm. Data was exported and analyzed using an Excel spreadsheet. The activity was quantified by comparing to a standard curve of 7-hydroxy-4-trifluoromethyl coumarin.

The test system of data set [5] is panel of cDNA-expressed human P450 enzymes. Nature of the data set: Selectivity of dealkylation in a panel of cDNA-expressed human P450 enzymes. In kind it is biochemical. An excerpt: The selectivity of various P450 isoforms for dealkylation of compound I was examined using a panel of commercially available human cDNA-expressed enzymes. A substrate that is selective for a single P450 isoform (substrate is catalytically turned over by a single P450 isoform) is a desirable trait in that its activity may be examined within a heterogeneous mixture of enzymes, for example, in human liver microsomes. […] Compound I is therefore a more useful substrate for probing CYP3A activity in a heterogeneous mixture than the previous substrate BzRes. These advantages permit the specific detection of low levels of a preselected cytochrome P450 enzyme (e.g., 3A4) contained in various types of samples, e.g., tissue samples, microsomes, and so forth.
Example Compound I. Assays were conducted as described in (1) above except: incubation time was 20 min.; enzymes were commercially available, baculovirus/insect cell expressed human P450s (SUPERSOMES®, GENTEST Corporation); and the amount of enzyme added per well was 10 pmole with the exception of 2.5 pmole for CYP3A enzymes.

The nature of data set [6]: Solubility noted in enzyme kinetics table. In kind it is physicochemical. The note with it: at >200 uM.
Data set [7] addresses T1, human CYP3A4.

T1 sequence (P08684 whole entry): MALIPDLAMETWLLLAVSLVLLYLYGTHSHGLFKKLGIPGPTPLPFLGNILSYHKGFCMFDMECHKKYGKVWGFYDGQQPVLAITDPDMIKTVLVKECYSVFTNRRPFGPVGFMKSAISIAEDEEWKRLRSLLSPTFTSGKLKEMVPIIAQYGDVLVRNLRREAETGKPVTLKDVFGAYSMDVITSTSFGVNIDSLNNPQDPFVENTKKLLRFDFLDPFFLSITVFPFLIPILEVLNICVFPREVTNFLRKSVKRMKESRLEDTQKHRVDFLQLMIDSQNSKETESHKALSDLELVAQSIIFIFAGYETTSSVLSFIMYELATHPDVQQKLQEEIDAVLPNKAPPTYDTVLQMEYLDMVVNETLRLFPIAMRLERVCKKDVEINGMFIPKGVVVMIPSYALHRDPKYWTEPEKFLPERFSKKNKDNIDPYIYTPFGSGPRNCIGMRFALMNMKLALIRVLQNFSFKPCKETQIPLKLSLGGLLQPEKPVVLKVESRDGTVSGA

Regarding `CC[C@H]1OC(=O)[C@H](C)[C@@H](O[C@H]2C[C@@](C)(OC)[C@@H](O)[C@H](C)O2)[C@H](C)[C@@H](O[C@@H]2O[C@H](C)C[C@H](N(C)C)[C@H]2O)[C@](C)(O)C[C@@H](C)C(=O)[C@H](C)[C@@H](O)[C@]1(C)O` [Erythromycin], the IC50 against human CYP3A4 [1] (CYP3A4 IC50, substrate BzRes, substrate BzRes) is 1700 nM; against human CYP3A4 [1] (CYP3A4 IC50, substrate I, substrate compound I (100 uM)) it was 4070 nM.
Consider `O=c1cc(C(F)(F)F)c2ccc(O)cc2o1` [Compound II, 7-hydroxy-4-trifluoromethylcoumarin], for which the “quantum yield of product relative to the product of benzyloxyresorufin” value in data set [2] is “greater quantum yield”.
Regarding `CCOc1ccc2c(C(F)(F)F)cc(=O)oc2c1` [7-Ethoxy-4-trifluoromethylcoumarin], in the data set on human CYP2B6, the “O-dealkylation by human CYP2B6” value is given as “O-dealkylated”. Further, in the data set on other human P450s, the “O-dealkylation by other human P450s” value is on record as “O-dealkylated”.
Consider `O=c1ccc2nc3ccc(OCc4ccccc4)cc3oc-2c1` [Benzyloxyresorufin, 7-benzyloxyresorufin], for which the “metabolism by other human cytochromes P450” value in data set [3] was “significantly metabolized by other human cytochromes P450”. Besides, in the data set with CYP3A4, the enzymatic turnover entry is given as “low enzymatic turnover” and the specificity result is “poor specificity”.
Turning to `O=c1cc(C(F)(F)F)c2ccc(OCc3ccccc3)cc2o1` [Compound I, 7-Benzyloxy-4-trifluoromethylcoumarin], the “Vmax (at 40 uM)” value on human CYP3A4 [4] (cDNA-expressed CYP3A4, at 40 uM substrate) was found to be 1.5 min⁻¹. For the same molecule, the Km at 0.75 h on human CYP3A4 [4] (human, cDNA-expressed CYP3A4, 1 pmole/well, 37° C., 45 minutes) is over 200 µM. The “selectivity of dealkylation in panel of human P450 enzymes (FIG. 1)” value in data set [5] (20 min, 10 pmole/well (2.5 pmole for CYP3A enzymes)) is on record as “selective for CYP3A4”. Moreover, the “rank of CYP1A1 in dealkylation of the substrate” value in data set [5] (CYP1A1) is reported as “second best enzyme”. Also, in data set [6], the “solubility (remark to Km >200 uM)” value is reported as “exceeds solubility”. Further, at human CYP3A4 [7], the “IC50 values with compound I as the substrate compared with BzRes” value is given as “tend to yield lower IC50 values”.
